The subject of test [1] is mouse contact sensitisation model. Briefly: Contact sensitisation (oxazalone, ear swelling) in mice. The note with it: for ear swelling response (steroid alone) / normal ear swelling (steroid alone): 5 mg/kg s.c. days 0 and 4; for increase in ear thickness (steroid alone): 100 μg/mouse s.c. days 0, 4 and 5; for normal ear swelling (steroid alone): Experiment 4, FIG. 7. It is filed as in vivo. How it is done: 1. Contact Sensitisation (CS)
On day 0, mice were painted on their shaved right flank with 50 μl 2.5% oxazalone or vehicle (acetone 4:1 olive oil). On day 5 animals were challenged on their dorsal right ear surface with 25 μl of either 0.75% or 0.25% oxazalone. Prior to ear challenge, and 24, 48 and 72 hour post challenge ear thickness was measured using an engineer's micrometers. Ear swelling is determined as the difference in thickness prior and post challenge. The data are expressed as percentage change from the vehicle treated groups given sensitisation and challenge.
DHEA, DHEAS were administered at various times, generally at time of sensitisation (day 0) and time of challenge (day 3 or 4-DTH model, day 4 or 5-(CS-model) in order to obtain an augmentation of the immune response above non-steroid treated animals.
Different doses of the inhibitors have been used, and compared to the effect of dexamethasone as potential immunosuppressive/anti-inflammatory agents.

For test [2], the system named is mouse delayed type hypersensitivity model. Briefly: Delayed type hypersensitivity (SRBC, footpad swelling) in the mouse. It is filed as in vivo. The note with it: FIG. 11; 5 mg/kg s.c.; 24 h post challenge. Here is the method: 2. Delayed Type Hypersensitivity (DTH)
On day 0, animals were injected intravenously with 10^6 washed SRBC in 0.1 ml saline. Four days later animals were challenged in the right hind footpad with 10^6 washed SRBC in 50 μl saline. Footpad thickness is measured prior to challenge, 24, 48 and 72 hours post challenge using calipers. Footpad swelling is determined as the difference in thickness prior and post challenge. The data are expressed as percentage change from the vehicle treated groups given sensitisation and challenge.
Animals were randomised into 10 groups (n=7-8) and steroids given on day 0 and 4.
Steroids were given on day 0 and 3 subcutaneously. Response at 24 h post challenge. Results given as mean±sem. $, *p<0.05 ANOVA.

Test [3] deals with mouse contact sensitisation model. Briefly: Cellular infiltrate (anti-CD3 / anti-Mac-1 positive cells) in challenged ears, contact sensitisation. The test is classed as in vivo, mice. The note with it: Experiment 7, FIG. 10; DHEAS 5 mg/kg days 0 and 5; 24 h following challenge. Here is the method:
Animals were randomised into 7 groups (n=7-10) and steroids given on days 0 and 5. At 24 h following challenge, ears were removed, fixed and stained with either an anti-CD3 (T-cells) or anti-Mac-1 (monocytes/macrophages) antibody and the number of positive cells counted in 10 random fields.

The subject of the next test is carrageenan pleurisy. Kind of test: Carrageenan pleurisy. The test is classed as in vivo, Wistar Rats. Particulars: FIG. 14; DEX 1 mg/kg p.o. at T=-1 h; six hours. How it is done: Wistar Rats were anaesthetised and given intra-pleural injections of 0.5% carrageenan in saline at time 0. Six hours later the animals were killed and pleural cavity lavaged with 1 ml. citrated saline. Volume of fluid exudate and exudate cell concentration were measured. Animals were randomised to 5 treatment groups (n=6).

[4] abbreviates: Metabolites Experiment 3, FIG. 17.
Setting [5] is: Experiment 1, FIG. 4, 48 post challenge.
[6] abbreviates: Experiment 2, FIG. 5, 100 μg/mouse s.c. days 0 and 5, 24 h post-challenge.

Take `CC12CCC(OS(=O)(=O)O)CC1=CCC1C2CCC2(C)C(O)CCC12` (stereo not drawn) [AEDS]: in test [1] (Metabolites Experiment 2, FIG. 16, AEDS 0.0005-5 mg/kg s.c. days 0 and 4), the ear swelling response entry was “can augment the ear swelling response”. The “dose for augmentation of ear swelling, less than seen with DHEAS” value in test [1] (Metabolites Experiment 2, FIG. 16, relative to DHEAS) is listed as “at least 1000 fold”. Moreover, in test [1] (setting [4]), the “substrate for the sulphatase enzyme in vivo” value is recorded as “can serve as a physiological substrate for the sulphatase enzyme in vivo” and the “ear swelling response (steroid alone)” value is “stimulatory response”.
`CN(C)S(=O)(=O)Oc1ccc2c(c1)CC[C@@H]1[C@@H]2CC[C@]2(C)C(=O)CC[C@@H]12` [CT 2210, Estrone-3-0-(N,N-dimethyl)sulphamate]: in test [1] (Experiment 1, FIG. 4, 2 mg/mouse s.c. days 0, 4 and 5, 48 post challenge), the “ear swelling, inhibitor alone” value was “able to attenuate the ear swelling seen in the absence of DHEA and DHEAS”. In addition, the “reversal of stimulatory effects of DHEA and DHEAS on ear swelling” value in test [1] (Experiment 1, FIG. 4, inhibitor 2 mg/mouse with DHEA or DHEAS 100 μg/mouse s.c. days 0, 4 and 5, 48 post challenge) is “able to reverse the stimulatory effects of either DHEA and DHEAS”.
As to `C[C@]12CC[C@H](O)CC1=CC[C@@H]1[C@@H]2CC[C@]2(C)C(=O)CC[C@@H]12` [DHEA, Dehydroepiandrosterone], the “increase in ear thickness (steroid alone)” value (“increase in ear thickness” below) in test [1] (setting [5]) is listed as “augmented the normal increase in ear thickness”. The ear swelling response entry in test [1] (setting [6]) is recorded as “significantly augmented the response”; in test [1] (Metabolites Experiment 1, FIG. 15, DHEA 0.005-5 mg/kg, AED 0.05-5 mg/kg s.c. days 0 and 4), “can augment the ear swelling response”. Also, the “normal ear swelling (steroid alone)” value in test [1] is recorded as “augmented the normal ear swelling”. In addition, the “foot swelling response (steroid alone)” value in test [2] is “clearly pro-immune (or pro-inflammatory)”.
Take `C[C@]12CC[C@H](OS(=O)(=O)O)CC1=CC[C@@H]1[C@@H]2CC[C@]2(C)C(=O)CC[C@@H]12` [DHEAS, DHEA sulphate]: the “increase in ear thickness” value in test [1] (setting [5]) was “augmented the normal increase in ear thickness”. The ear swelling response result in test [1] (setting [6]) was “significantly augmented the response”. The “anti-glucocorticoid effect on ear swelling” value in test [1] (Experiment 3, FIG. 6, DHEAS 0.0005-50 mg/kg with corticosterone 5 mg/kg s.c. days 0 and 4) was “functional anti-glucocorticoid effect”. Further, the “normal ear swelling (steroid alone)” value in test [1] is recorded as “augmented the normal ear swelling”. In test [1] (setting [4]), the “ear swelling response (steroid alone)” value is on record as “stimulatory response”. Also, in test [3], the “immune and inflammatory cell infiltrate into challenged ears” value was “can augment both immune and inflammatory cell infiltrate into challenged ears”. The “foot swelling response (steroid alone)” value in test [2] is listed as “clearly pro-immune (or pro-inflammatory)”.
Consider `C[C@@H]1C[C@H]2[C@@H]3CCC4=CC(=O)C=C[C@]4(C)[C@@]3(F)[C@@H](O)C[C@]2(C)[C@@]1(O)C(=O)CO` [Dexamethasone, dexamethasone], for which, in the test with carrageenan pleurisy, the “fluid leakage (exudate)” value is reported as “can completely inhibit fluid leakage” and the “reduction of cellular influx” value is recorded as 68%. Also, the “increase in ear thickness” value in test [1] (setting [5]) is “reduced the response”. Further, the ear swelling response entry in test [1] (setting [6]) is “inhibited”. Besides, the “normal ear swelling (steroid alone)” value in test [1] is on record as “inhibited”. Also, the “degree of ear swelling” value in test [1] (Experiment 5, FIG. 8, DEX 5 mg/kg s.c. days 0 and 4, 24 h) is on record as “inhibited the degree of ear swelling”.

For the origin of these results see US6013642A, “Use of estrone derivatives as steroid sulphatase inhibitors” (priority 1994, dated 2000).
